From US20050171005A1, “Methods and compositions for modulating beta-catenin phosphorylation” (priority 2002, published 2005)
Where a SMILES comes first, the peptide text is derived from it. The star is where a group is joined. Cbz = O=C(OCc1ccccc1)*

What was measured:
[1] = system: β-catenin; experiment: Wnt3A conditioned medium stimulation of L, SNU449, HeLa and Jurkat cells, β-catenin level and phosphorylation by Western blot; format: cell-based
Experimental: FIG. 6a: Wnt3A inhibits S45 phosphorylation. Mouse L cells, SNU449 hepatoma cells [Satoh et al. (2000) Nat Genet 24(3):245-50], HeLa cells and β-catenin transfected Jurkat T cells were incubated (5 hr) with conditioned medium of wt or Wnt3A secreting L cells [Shibamoto et al. (1998) Genes Cells 3: 659-670]. MG-132 or okadaic acid (OKA, 1 μM) were added to the indicated cultures. Endogenous (HeLa, L cells and SNU449) and exogenous (Jurkat) β-catenin was detected with anti-β-catenin antibody, or anti-phospho-β-catenin antibodies. The numbers under the different lanes are relative densitometry figures, referring to the signal intensity of untreated cultures.
The control of β-catenin stability is a major task of the Wnt pathway and is mediated through members of the conserved protein family dishevelled (Dvl 1,2,3) [Boutros and Mlodzik (1999) id ibid.]. […] To this end, several cell lines were first stimulated with Wnt3A [Roelink, H. and R. Nusse. (1991) Genes Dev 5: 381-388; Shibamoto, S. et al. (1998) id ibid.; Lee et al. (1999) id ibid.], and S45 phosphorylation was monitored by Western blot analysis. Wnt stimulation stabilized endogenous β-catenin in mouse L-cells (fibroblasts) (FIG. 6a, lanes 1,2) and exogenous β-catenin in Jurkat lymphocytes (lanes 5,6). […] (lanes 9-11). S45 phosphorylation of β-catenin was evident in proteasome-inhibited L cells (lane 3), Jurkat cells (lane 7) and HeLa cells (lane 14). It was also apparent in okadaic acid-treated SNU449 cells (OKA, lane 10).

[2] = system: endogenous β-catenin; experiment: Phosphorylation of endogenous β-catenin in proteasome-inhibited HeLa cells with kinase inhibitors; format: cell-based; settings: H89 5 μM
Experimental: FIG. 5d: Effects of specific kinase inhibitors on the phosphorylation of endogenous β-catenin at S41,45 and S33 in HeLa cells. CKI-7 was used at 100 μM, H89 at 5 μM and LiCl at 40 mM. β-catenin was detected with anti-β-catenin antibody, or anti-phospho-p-catenin antibodies.
(§1) 293T cells were transiently transfected using the calcium phosphate procedure. The following expression vectors were used: Myc- or Flag-tagged β-catenin (0.5 μg) (a human β-catenin clone obtained from R. Grosschedl), Flag- or Myc-tagged axin (2 μg) (mouse cDNA provided by F. Costantini), HA-GSK3β or Flag-GSK3β (3.5 μg) (a rabbit clone obtained from J R Woodgett) [Woodgett, J. R. (1990) EMBO J 9: 2431-2438]. β-catenin mutants include DP, (S33, S37, T40, S45, S47 substituted to alanine) single point mutants (S29F, S33Y, S37A, T41A, S45F) and 45PKA (T41S, T42R, A43R). Additional vectors: Flag-WD, a dominant negative β-TrCP fragment (ΔF-box) [Yaron, A. et al. (1998) Nature 396: 590-594]; Flag-Dvl-1 (a mouse cDNA clone obtained from S-I Yanagawa) [Lee, J. S. et al. (1999) J Biol Chem 274: 21464-21470]; WT and dominant negative Xenopus CKIε (XCKIε-D128N) (provided by T. Shcwarz-Romond) [McKay, R. M. et al. (2001) Dev Biol 235: 378-387]. 24-48 hr after transfection, cells were harvested and processed for the various experiments. MG-132 (Sigma) was used at 20 μM for 5 hr; LiCl (40 mM) was added for 6 hr, and CKI-7 (100 μM) for 16 hr prior to harvesting. β-catenin, axin or GSK-30 in cell lysates were detected using anti-Myc (Ab-1, Oncogenes Research Products, 2 μg/ml), anti-Flag (M2, Sigma, 1 μg/ml) and anti-HA (12CA5 ascites fluid; 1:5000) antibodies, respectively. GFP expression was monitored with anti-GFP antibody (JL-8, Clontech, 1 μg/ml). In some experiments (FIG. 4) GSK-3β was detected using anti-GSK-3β monoclonal antibodies (clone 7, Transduction Laboratories, 0.1 μg/ml). Endogenous and exogenous β-catenin (FIGS. 5d and 6a) were detected with anti-β-catenin antibodies (clone 14, Transduction Laboratories) (0.25 μg/ml).
Western blot and mass spectrometry (MS). Three different commercial anti-β-catenin phospho-peptide antibodies were used: i) Anti-phospho-Thr41/Ser 45 (Cell Signaling Technology), a polyclonal antibody specific for both pT41 and pS45 (otp41,45). ii) Anti-phospho-Ser33/37/Thr41 (Cell Signaling Technology), a polyclonal antibody recognizing pS33 (αp33). […] Antibody specificities were determined by phosphopeptide inhibition studies. […]
In another set of experiments the in vivo role of CKI in S45 phosphorylation was analyzed, using two dominant negative CKIε constructs (dnXCKIε K85R and D128N) [McKay et al. (2001) id ibid.] and a specific CKI inhibitor (CKI-7) [Chijiwa, T. et al. (1989) J Biol Chem 264: 4924-4927]. […]

[3] = system: β-catenin; format: cell-based, human; settings: 293 cells; CKI-7 100 μM for 16 hr; H89 data not shown
Experimental: as §1
Western blot and mass spectrometry (MS). Three different commercial anti-β-catenin phospho-peptide antibodies were used: i) Anti-phospho-Thr41/Ser 45 (Cell Signaling Technology), a polyclonal antibody specific for both pT41 and pS45 (otp41,45). ii) Anti-phospho-Ser33/37/Thr41 (Cell Signaling Technology), a polyclonal antibody recognizing pS33 (αp33). These two polyclonal antibodies were used at a 1:1000 dilution, according to the manufacturer's instructions. iii) anti-phospho-Ser 33/37 (BC-22, Sigma), a monoclonal antibody specific for pS37 (used as ascites fluid at a 1:3000 dilution; αp37). Antibody specificities were determined by phosphopeptide inhibition studies. D^32S(PO4)GIHSGATTTAPS^45 abolished the αp33, but not the αp37 signal; D^32SGIHS(PO4)GATTTAPS^45 blocked the αp37 but not the αp33 signal. […] Proteins for MS analysis were immunopurified by M2 Flag-affinity beads (Sigma), separated by SDS-PAGE, Coomassie stained and the β-catenin bands were in-gel digested with endoproteinase Asp-N. The resulting peptides were desalted on small columns, eluted with 20% MeOH, 5% HCOOH, and analyzed by nanoelectrospray mass spectrometry [Yaron et al. (1998) id ibid.], using a quadrupole time-of-flight mass spectrometer (PE-Sciex, Canada).
GSK-3β is traditionally known to target the phosphorylation of +4P-primed substrates [Frame, S. et al. (2001) Mol Cell 7: 1321-1327], a specificity supported by recent structural studies of the enzyme [Dajani, R. et al (2001) Cell 105: 721-732]. The fact that the S45 phosphorylation site is not preceded by a +4P priming site led to the proposition that the molecular complex of axin and GSK-3β is capable of bypassing the priming requirement of the uncomplexed enzyme [Cohen and Frame (2001) id ibid.]. To assess the contribution of GSK-30 in axin-mediated S45 phosphorylation, two types of experiments were carried out. In the first set, 293 cells were incubated prior to harvesting with LiCl, a GSK-3β inhibitor capable of mimicking a Wnt effect [Klein, P. S. and D. A. Melton (1996) Proc Natl Acad Sci USA 93: 8455-8459; Stambolic, V. et al. (1996) Curr Biol 6: 1664-1668].

[4] = system: β-catenin; experiment: Okadaic acid treatment of HeLa, SW480 and SNU449 cells, Western blot with anti-phospho β-catenin antibodies; format: cell-based
Experimental: FIG. 7a: HeLa cells were incubated with MG132 with or without okadaic acid (1 μM for 3 hr). Cell lysates were analyzed by Western blotting with αp45 and αp33.
FIG. 7b: SNU449 cells [Satoh et al. (2000) id ibid.] were treated with okadaic acid (1 μM for 1 or 3 hr), and their lysates tested for S45 phosphorylation by Western blotting,
FIG. 7c: Okadaic Acid induces β-Catenin phosphorylation and degradation in the APC mutated cell line SW480.
Okadaic acid is a selective inhibitor of phosphatase PP2A, while it inhibits to a lower extent (10-50 fold less) phosphatase PP1. Proteasome-inhibited HeLa and SW480 cells (treated with 20 μM MG132) or Ser 37-mutated SNU 449 […] cells [Satoh et al. (2000) id ibid.] were treated with okadaic acid (1 μM) for 1 or 3 hr, harvested and their lysate analyzed by Western blot with anti-phospho β-catenin antibodies: anti-pSer45 and anti-pSer33 (for HeLa and RKO cells only). […] Yet, since S45 phosphorylation precedes the S33 phosphorylation, the okadaic effect may be reserved to S45. This is an example of a compound that can upregulate S45 phosphorylation, while Wnt3A downregulates the same phosphorylation event (FIG. 6a).

[5] = system: phosphatase PP1; settings: selective inhibitor of phosphatase PP2A; cited from earlier work
[6] = system: β-catenin; experiment: β-catenin degradation in the 293 axin/GSK-3β expression system (Western blot); format: cell-based, human; settings: 293 cells, axin and GSK-3β overexpression, Myc-β-catenin; MG-132 20 μM for 5 hr
Experimental: as §1, with “T42R, A43R). […] MG-132 (Sigma)” for “T42R, A43R). Additional vectors: Flag-WD, a dominant negative β-TrCP fragment (ΔF-box) [Yaron, A. et al. (1998) Nature 396: 590-594]; Flag-Dvl-1 (a mouse cDNA clone obtained from S-I Yanagawa) [Lee, J. S. et al. (1999) J Biol Chem 274: 21464-21470]; WT and dominant negative Xenopus CKIε (XCKIε-D128N) (provided by T. Shcwarz-Romond) [McKay, R. M. et al. (2001) Dev Biol 235: 378-387]. 24-48 hr after transfection, cells were harvested and processed for the various experiments. MG-132 (Sigma)”, “(0.25 μg/ml). […]” for “(0.25 μg/ml).”

For Wnt3A, the S33/37 phosphorylation ([1]; Jurkat, HeLa and L cells) was “inhibition”, the “levels of S37 mutated β-catenin” value ([1]; SNU449 hepatoma cell line, conditioned medium 5 hr) was “did not affect” and the S45 phosphorylation ([1]; all four cell lines (L, Jurkat, SNU449, HeLa), MG-132 or okadaic acid treated) was “inhibition”. For the same compound, the “β-catenin level (stabilization)” value ([1]; endogenous β-catenin in mouse L-cells, exogenous β-catenin in Jurkat lymphocytes, conditioned medium 5 hr) was “stabilized”.

For O=S(=O)(NCCNC/C=C/c1ccc(Br)cc1)c1cccc2cnccc12 [H89], the “wt β-catenin phosphorylation” value [2] was “no effect” and the “constitutive S45 phosphorylation of 45PKA β-catenin” value [3] was “inhibited”.

For C=C1[C@@H](O)[C@@H]2O[C@]3(CC[C@H](/C=C/[C@@H](C)[C@@H]4CC(C)=C[C@@]5(O[C@H](C[C@@](C)(O)C(=O)O)CC[C@H]5O)O4)O3)CC[C@H]2O[C@@H]1[C@@H](O)C[C@H](C)[C@H]1O[C@@]2(CCCCO2)CC[C@H]1C [okadaic acid], the “β-Catenin phosphorylation and degradation” value ([4]; APC mutated cell line SW480) was “induces”, the “phosphorylation signal with anti-pSer45” value ([4]; MG132-treated HeLa and SW480 cells or SNU 449 cells, okadaic acid 1 μM for 1 or 3 hr) was “induces a massive phosphorylation signal” and the “S45 phosphorylation of β-catenin” value ([4]; SNU449 cells, okadaic acid 1 μM) was “apparent”. The “phosphorylation signal with anti-pSer33” value ([4]; okadaic acid 1 μM for 1 or 3 hr, for HeLa and RKO cells only (so in the source)) was “induces a massive phosphorylation signal” and the “inhibition of phosphatase PP1 relative to PP2A” value [5] was 10-50 fold less.

With CC(C)C[C@@H](C=O)NC(=O)[C@H](CC(C)C)NC(=O)[C@H](CC(C)C)NC(=O)OCc1ccccc1 [MG-132] (Cbz-Leu-Leu-Leu-aldehyde) the β-catenin degradation [6] was “blocked”.
